Results: patent US20170190671A1, “BIS(ARYL)CATECHOL DERIVATIVES AS HERBICIDES” (E I DU PONT DE NEMOURS AND COMPANY, priority 2014, published 2017)

Key:
Format in all cases: in vivo
corn (Zea mays) = experiment: Test C preemergence; conditions: Zea mays, pre-emergence, 336 h, scale 0 to 100
Procedure, shortened: (§1)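 Seeds in loam-sand soil were treated preemergence, and plants at the 1- to 4-leaf stage (2-18 cm) in peat-based medium were sprayed postemergence, with test chemicals in a non-phytotoxic solvent containing surfactant. After 13-15 days in a greenhouse, response was rated visually against controls from 0 (no effect) to 100 (complete control).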

[1] = system: galium (catchweed bedstraw, Galium aparine); experiment: Test C preemergence; conditions: Galium, pre-emergence, 336 h, scale 0 to 100, read-out: Plant response rating, Galium
Procedure, shortened: as §1

[2] = system: lambsquarters (Chenopodium album); experiment: Test C preemergence; conditions: Chenopodium album, pre-emergence, 336 h, scale 0 to 100, read-out: Plant response rating, Lambsquarters
Procedure, shortened: as §1

soybean (Glycine max) = experiment: Test C preemergence; conditions: Glycine max, pre-emergence, scale 0 to 100, read-out: Plant response rating, Soybean
Procedure, shortened: as §1

[3] = system: johnsongrass (Sorghum halepense); experiment: Test C preemergence; conditions: Sorghum halepense, pre-emergence, 336 h, scale 0 to 100, read-out: Plant response rating, Johnsongrass
Procedure, shortened: as §1

[4] = system: barnyardgrass (Echinochloa crus-galli); experiment: Test C preemergence; conditions: Echinochloa crus-galli, pre-emergence, read-out: Plant response rating, Barnyardgrass
Procedure, shortened: as §1

[5] = system: velvetleaf (Abutilon theophrasti); experiment: Test C preemergence; conditions: Abutilon theophrasti, pre-emergence, scale 0 to 100, read-out: Plant response rating, Velvetleaf
Procedure, shortened: as §1

[6] = system: morningglory (Ipomoea coccinea); experiment: Test C preemergence; conditions: Ipomoea, pre-emergence, 336 h, scale 0 to 100, read-out: Plant response rating, Morningglory
Procedure, shortened: as §1

[7] = system: pigweed (Amaranthus retroflexus); experiment: Test C preemergence; conditions: Amaranthus retroflexus, pre-emergence, 336 h, scale 0 to 100, read-out: Plant response rating, Pigweed
Procedure, shortened: as §1

[8] = system: blackgrass (Alopecurus myosuroides); experiment: Test C preemergence; conditions: Alopecurus myosuroides, pre-emergence, 336 h, scale 0 to 100, read-out: Plant response rating, Blackgrass
Procedure, shortened: as §1

[9] = system: large (Lg) crabgrass (Digitaria sanguinalis); experiment: Test C preemergence; conditions: Digitaria sanguinalis, pre-emergence, 336 h, scale 0 to 100, read-out: Plant response rating, Crabgrass, Large
Procedure, shortened: as §1

[10] = system: yellow nutsedge (Cyperus esculentus); experiment: Test C preemergence; conditions: Cyperus, pre-emergence, 336 h, scale 0 to 100, read-out: Plant response rating, Nutsedge, Yellow
Procedure, shortened: as §1

[11] = system: giant foxtail (Setaria faberii); experiment: Test C preemergence; conditions: Setaria faberi, pre-emergence, 336 h, scale 0 to 100, read-out: Plant response rating, Foxtail, Giant
Procedure, shortened: as §1

[12] = system: winter wheat (Triticum aestivum); experiment: Test C preemergence; conditions: Triticum aestivum, pre-emergence, 336 h, scale 0 to 100, read-out: Plant response rating, Wheat
Procedure, shortened: as §1

[13] = system: ragweed (common ragweed, Ambrosia elatior); experiment: Test C preemergence; conditions: Ambrosia artemisiifolia, pre-emergence, 336 h, scale 0 to 100, read-out: Plant response rating, Ragweed
Procedure, shortened: as §1

[14] = system: oilseed rape (Brassica napus); experiment: Test C preemergence; conditions: Brassica napus, pre-emergence, scale 0 to 100, read-out: Plant response rating, Oilseed Rape
Procedure, shortened: as §1

[15] = system: galium (catchweed bedstraw, Galium aparine); experiment: Test C postemergence; conditions: Galium, post-emergence, 336 h, Postemergence, scale 0 to 100, read-out: Plant response rating, Galium
Excerpt: (§2) Seeds of plant species selected from blackgrass (Alopecurus myosuroides), Italian ryegrass (Lolium multiflorum), winter wheat (Triticum aestivum), galium (catchweed bedstraw, Galium aparine), corn (Zea mays), large (Lg) crabgrass (Digitaria sanguinalis), giant foxtail (Setaria faberii), johnsongrass (Sorghum halepense), lambsquarters (Chenopodium album), morningglory (Ipomoea coccinea), yellow nutsedge (Cyperus esculentus), pigweed (Amaranthus retroflexus), ragweed (common ragweed, Ambrosia elatior), soybean (Glycine max), barnyardgrass (Echinochloa crus-galli), oilseed rape (Brassica napus), waterhemp (common waterhemp, Amaranthus rudis), and velvetleaf (Abutilon theophrasti) were planted into a blend of loam soil and sand and treated preemergence with test chemicals formulated in a non-phytotoxic solvent mixture which included a surfactant.
(§3) At the same time, plants selected from these crop and weed species and also chickweed (common chickweed, Stellaria media), kochia (Kochia scoparia), and wild oat (Avena fatua), were planted in pots containing Redi-Earth® planting medium (Scotts Company, 14111 Scottslawn Road, Marysville, Ohio 43041) comprising spaghnum peat moss, vermiculite, wetting agent and starter nutrients and treated with postemergence applications of test chemicals formulated in the same manner. Plants ranged in height from 2 to 18 cm (1- to 4-leaf stage) for postemergence treatments. Treated plants and controls were maintained in a greenhouse for 13 to 15 days, after which time all species were compared to controls and visually evaluated. Plant response ratings, summarized in Table C, are based on a scale of 0 to 100 where 0 is no effect and 100 is complete control. A dash (-) response means no test result.

kochia (Kochia scoparia) = experiment: Test C postemergence; conditions: Bassia scoparia, post-emergence, Postemergence, scale 0 to 100, read-out: Plant response rating, Kochia
Excerpt: as §2, §3

[16] = system: velvetleaf (Abutilon theophrasti); experiment: Test C postemergence; conditions: Abutilon theophrasti, post-emergence, Postemergence, scale 0 to 100, read-out: Plant response rating, Velvetleaf
Excerpt: as §2, §3

[17] = system: morningglory (Ipomoea coccinea); experiment: Test C postemergence; conditions: Ipomoea, post-emergence, 336 h, Postemergence, scale 0 to 100, read-out: Plant response rating, Morningglory
Excerpt: as §2, §3

[18] = system: large (Lg) crabgrass (Digitaria sanguinalis); experiment: Test C postemergence; conditions: Digitaria sanguinalis, post-emergence, 336 h, Postemergence, scale 0 to 100, read-out: Plant response rating, Crabgrass, Large
Excerpt: as §2, §3

[19] = system: winter wheat (Triticum aestivum); experiment: Test C postemergence; conditions: Triticum aestivum, post-emergence, 336 h, Postemergence, scale 0 to 100, read-out: Plant response rating, Wheat
Excerpt: as §2, §3

N#Cc1cccc(Oc2ncc(Cl)cn2)c1Oc1ncc(Br)cn1 [Compound 4, 2-[(5-bromo-2-pyrimidinyl)oxy]-3-[(5-chloro-2-pyrimidinyl)oxy]benzonitrile]
Corn plant response rating (crop injury, 0 = no effect, 100 = complete kill) at 31 g/ha (corn (Zea mays); 31 g ai/ha, preemergence): 5%
Corn plant response rating (crop injury, 0 = no effect, 100 = complete kill) at 62 g/ha (corn (Zea mays); 62 g ai/ha, preemergence): 10%
Corn plant response rating (crop injury, 0 = no effect, 100 = complete kill) at 125 g/ha (corn (Zea mays); 125 g ai/ha, preemergence): 35%
Corn plant response rating (crop injury, 0 = no effect, 100 = complete kill) at 16 g/ha (corn (Zea mays); Preemergence, 16 g ai/ha): 0%
pest or weed control at 31 g/ha ([1]; 31 g ai/ha, preemergence): 30%
pest or weed control at 62 g/ha ([1]; 62 g ai/ha, preemergence): 30%
pest or weed control at 125 g/ha ([1]; 125 g ai/ha, preemergence): 100%
pest or weed control at 16 g/ha ([1]; Preemergence, 16 g ai/ha): 5%
pest or weed control at 31 g/ha ([2]; 31 g ai/ha, preemergence): 95%
pest or weed control at 62 g/ha ([2]; 62 g ai/ha, preemergence): 85%
pest or weed control at 125 g/ha ([2]; 125 g ai/ha, preemergence): 100%
pest or weed control at 16 g/ha ([2]; Preemergence, 16 g ai/ha): 75%
plant injury at 31 g/ha (soybean (Glycine max); 31 g ai/ha, preemergence): 30%
plant injury at 62 g/ha (soybean (Glycine max); 62 g ai/ha, preemergence): 50%
plant injury at 125 g/ha (soybean (Glycine max); 125 g ai/ha, preemergence): 95%
plant injury at 16 g/ha (soybean (Glycine max); Preemergence, 16 g ai/ha): 5%
pest or weed control at 31 g/ha ([3]; 31 g ai/ha, preemergence): 15%
pest or weed control at 62 g/ha ([3]; 62 g ai/ha, preemergence): 80%
pest or weed control at 125 g/ha ([3]; 125 g ai/ha, preemergence): 98%
pest or weed control at 16 g/ha ([3]; Preemergence, 16 g ai/ha): 0%
pest or weed control at 31 g/ha ([4]; 31 g ai/ha, preemergence, scale 0 to 100): 60%
pest or weed control at 62 g/ha ([4]; 62 g ai/ha, preemergence, scale 0 to 100): 85%
pest or weed control at 125 g/ha ([4]; 125 g ai/ha, preemergence, scale 0 to 100): 100%
pest or weed control at 16 g/ha ([4]; Preemergence, 16 g ai/ha, scale 0 to 100 (0 no effect, 100 complete control)): 20%
pest or weed control at 31 g/ha ([5]; 31 g ai/ha, preemergence): 45%
pest or weed control at 62 g/ha ([5]; 62 g ai/ha, preemergence): 55%
pest or weed control at 125 g/ha ([5]; 125 g ai/ha, preemergence): 100%
pest or weed control at 16 g/ha ([5]; Preemergence, 16 g ai/ha): 5%
pest or weed control at 31 g/ha ([6]; 31 g ai/ha, preemergence): 35%
pest or weed control at 62 g/ha ([6]; 62 g ai/ha, preemergence): 55%
pest or weed control at 125 g/ha ([6]; 125 g ai/ha, preemergence): 98%
pest or weed control at 16 g/ha ([6]; Preemergence, 16 g ai/ha): 5%
pest or weed control at 31 g/ha ([7]; 31 g ai/ha, preemergence): 100%
pest or weed control at 62 g/ha ([7]; 62 g ai/ha, preemergence): 70%
pest or weed control at 125 g/ha ([7]; 125 g ai/ha, preemergence): 100%
pest or weed control at 16 g/ha ([7]; Preemergence, 16 g ai/ha): 5%
pest or weed control at 31 g/ha ([8]; 31 g ai/ha, preemergence): 30%
pest or weed control at 62 g/ha ([8]; 62 g ai/ha, preemergence): 95%
pest or weed control at 125 g/ha ([8]; 125 g ai/ha, preemergence): 95%
pest or weed control at 16 g/ha ([8]; Preemergence, 16 g ai/ha): 0%
pest or weed control at 31 g/ha ([9]; 31 g ai/ha, preemergence): 100%
pest or weed control at 62 g/ha ([9]; 62 g ai/ha, preemergence): 100%
pest or weed control at 125 g/ha ([9]; 125 g ai/ha, preemergence): 100%
pest or weed control at 16 g/ha ([9]; Preemergence, 16 g ai/ha): 75%
pest or weed control at 31 g/ha ([10]; 31 g ai/ha, preemergence): 0%
pest or weed control at 62 g/ha ([10]; 62 g ai/ha, preemergence): 30%
pest or weed control at 125 g/ha ([10]; 125 g ai/ha, preemergence): 55%
pest or weed control at 16 g/ha ([10]; Preemergence, 16 g ai/ha): 0%
pest or weed control at 31 g/ha ([11]; 31 g ai/ha, preemergence): 98%
pest or weed control at 62 g/ha ([11]; 62 g ai/ha, preemergence): 100%
pest or weed control at 125 g/ha ([11]; 125 g ai/ha, preemergence): 100%
pest or weed control at 16 g/ha ([11]; Preemergence, 16 g ai/ha): 10%
plant injury at 31 g/ha ([12]; 31 g ai/ha, preemergence): 0%
plant injury at 62 g/ha ([12]; 62 g ai/ha, preemergence): 0%
plant injury at 125 g/ha ([12]; 125 g ai/ha, preemergence): 5%
plant injury at 16 g/ha ([12]; Preemergence, 16 g ai/ha): 0%
pest or weed control at 31 g/ha ([13]; 31 g ai/ha, preemergence): 10%
pest or weed control at 62 g/ha ([13]; 62 g ai/ha, preemergence): 5%
pest or weed control at 125 g/ha ([13]; 125 g ai/ha, preemergence): 70%
pest or weed control at 16 g/ha ([13]; Preemergence, 16 g ai/ha): 0%
plant injury at 31 g/ha ([14]; 31 g ai/ha, preemergence): 75%
plant injury at 62 g/ha ([14]; 62 g ai/ha, preemergence): 90%
plant injury at 125 g/ha ([14]; 125 g ai/ha, preemergence): 100%
plant injury at 16 g/ha ([14]; Preemergence, 16 g ai/ha): 15%
pest or weed control at 16 g/ha ([15]; 16 g ai/ha): 55%
pest or weed control at 31 g/ha ([15]; 31 g ai/ha): 55%
pest or weed control at 62 g/ha ([15]; 62 g ai/ha): 60%
pest or weed control at 125 g/ha ([15]; 125 g ai/ha): 95%
pest or weed control at 16 g/ha (kochia (Kochia scoparia); 16 g ai/ha): 60%
pest or weed control at 31 g/ha (kochia (Kochia scoparia); 31 g ai/ha): 60%
pest or weed control at 62 g/ha (kochia (Kochia scoparia); 62 g ai/ha): 80%
pest or weed control at 125 g/ha (kochia (Kochia scoparia); 125 g ai/ha): 100%
pest or weed control at 31 g/ha ([16]; 31 g ai/ha): 40%
pest or weed control at 62 g/ha ([16]; 62 g ai/ha): 50%
pest or weed control at 125 g/ha ([16]; 125 g ai/ha): 60%
pest or weed control at 31 g/ha ([17]; 31 g ai/ha): 80%
pest or weed control at 62 g/ha ([17]; 62 g ai/ha): 85%
pest or weed control at 125 g/ha ([17]; 125 g ai/ha): 95%
pest or weed control at 16 g/ha ([18]; 16 g ai/ha): 5%
pest or weed control at 31 g/ha ([18]; 31 g ai/ha): 5%
pest or weed control at 62 g/ha ([18]; 62 g ai/ha): 5%
pest or weed control at 125 g/ha ([18]; 125 g ai/ha): 10%
plant injury at 31 g/ha ([19]; 31 g ai/ha): 0%
plant injury at 62 g/ha ([19]; 62 g ai/ha): 5%
plant injury at 125 g/ha ([19]; 125 g ai/ha): 5%
